Data from article PMC9578392, “Safety, Tolerability, and Pharmacokinetics of the Novel Antiviral Agent Ensitrelvir Fumaric Acid, a SARS-CoV-2 3CL Protease Inhibitor, in Healthy Adults” (Antimicrobial Agents and Chemotherapy, 2022).

Assay: Treatment-emergent adverse events, multiple dose (part 2)
Type: in vivo, human
Settings: for Abdominal pain, Events / Abdominal pain, n (%) / Blood creatine phosphate increased, Events / Blood creatine phosphate increased, n (%) / Blood triglyceride increased, Events / Blood triglyceride increased, n (%) / C-reactive protein increased, Events / C-reactive protein increased, n (%) / Diarrhea, Events / Diarrhea, n (%) / Dizziness, Events / Dizziness, n (%) / Feeling hot, Events / Feeling hot, n (%) / Gastrointestinal disorders, Events / Gastrointestinal disorders, n (%) / General disorders and administration site conditions, Events / General disorders and administration site conditions, n (%) / Headache, Events / Headache, n (%) / High-density lipoprotein cholesterol decreased, Events / High-density lipoprotein cholesterol decreased, n (%) / Investigations, Events / Investigations, n (%) / Nausea, Events / Nausea, n (%) / Nervous system disorders, Events / Nervous system disorders, n (%) / Oropharyngeal pain, Events / Oropharyngeal pain, n (%) / Participants with any TEAE, Events / Participants with any TEAE, n (%) / Pyrexia, Events / Pyrexia, n (%) / Rash, Events / Rash, n (%) / Respiratory, thoracic, and mediastinal disorders, Events / Respiratory, thoracic, and mediastinal disorders, n (%) / Skin and subcutaneous tissue disorders, Events / Skin and subcutaneous tissue disorders, n (%) / Somnolence, Events / Somnolence, n (%) / Vomiting, Events / Vomiting, n (%): n = 8
Method: In part 1, Japanese participants were randomized to receive placebo or single dose of ensitrelvir (20, 70, 250, 500, 1,000, and 2,000 mg given to cohorts A, B, C, D, E, and J, respectively), suspended in 0.5% methylcellulose, in the fasted state. Additionally, in cohort C, the effect of food on the pharmacokinetics of ensitrelvir was investigated in a 2-group, 2-period crossover design by administering placebo or ensitrelvir (250 mg) in the fasted or fed (high-fat/high-calorie) state. In part 2, Japanese participants were randomized to receive placebo or multiple doses of ensitrelvir, suspended in 0.5% methylcellulose. The multiple-dose regimens were as follows: once-daily doses of ensitrelvir 375 mg on day 1 and 125 mg on days 2 to 5 (cohort F), or 750 mg on day 1 and 250 mg on days 2 to 6 (cohort G) in the fasted state. White participants were randomized to receive placebo or multiple doses of ensitrelvir. The multiple-dose regimens were as follows: once-daily doses of ensitrelvir 375 mg on day 1 and 125 mg on days 2 to 5 (cohort H). Each cohort included 11 participants. In cohort G, the effect of ensitrelvir on the pharmacokinetics of midazolam (syrup) was evaluated in an open label self-controlled crossover design. Midazolam 2 mg alone was administered 2 days prior to initiating ensitrelvir administration (on day −2) and midazolam was coadministered on day 6 with placebo or ensitrelvir in the fasted state to participants following once-daily doses for 5 days of placebo (days 1 to 5) or ensitrelvir (750 mg on day 1 and 250 mg on days 2–5).
The nature, frequency, and severity of TEAEs were evaluated and recorded.

[1] = Cohort F 375/125 mg, Japanese, listed as ensitrelvir
[2] = Cohort G 750/250 mg + midazolam, Japanese
[3] = Cohort G 750/250 mg + midazolam, Japanese, listed as ensitrelvir
[4] = Cohort H 125 mg, white, listed as ensitrelvir

For Cn1cnc(Cn2c(=O)[nH]/c(=N\c3cc4cn(C)nc4cc3Cl)n(Cc3cc(F)c(F)cc3F)c2=O)n1 [Ensitrelvir, ensitrelvir fumaric acid], the “Abdominal pain, Events” value (Cohort F 375/125 mg, Japanese) was 0, the “Abdominal pain, n (%)” value (Cohort F 375/125 mg, Japanese) was 0 and the “Blood creatine phosphate increased, Events” value (Cohort F 375/125 mg, Japanese) was 0. For the same compound, the “Blood creatine phosphate increased, n (%)” value (Cohort F 375/125 mg, Japanese) was 0, the “Blood triglyceride increased, Events” value (Cohort F 375/125 mg, Japanese) was 0 and the “Blood triglyceride increased, n (%)” value (Cohort F 375/125 mg, Japanese) was 0. The “C-reactive protein increased, Events” value (Cohort F 375/125 mg, Japanese) was 0, the “C-reactive protein increased, n (%)” value (Cohort F 375/125 mg, Japanese) was 0 and the “Diarrhea, Events” value (Cohort F 375/125 mg, Japanese) was 5. For the same compound, the “Diarrhea, n (%)” value (Cohort F 375/125 mg, Japanese) was 4 (50.0), the “Dizziness, Events” value (Cohort F 375/125 mg, Japanese) was 0 and the “Dizziness, n (%)” value (Cohort F 375/125 mg, Japanese) was 0. The “Feeling hot, Events” value (Cohort F 375/125 mg, Japanese) was 0, the “Feeling hot, n (%)” value (Cohort F 375/125 mg, Japanese) was 0 and the “Gastrointestinal disorders, Events” value (Cohort F 375/125 mg, Japanese) was 5. For the same compound, the “Gastrointestinal disorders, n (%)” value (Cohort F 375/125 mg, Japanese) was 4 (50.0), the “General disorders and administration site conditions, Events” value (Cohort F 375/125 mg, Japanese) was 0 and the “General disorders and administration site conditions, n (%)” value (Cohort F 375/125 mg, Japanese) was 0. The “Headache, Events” value (Cohort F 375/125 mg, Japanese) was 0, the “Headache, n (%)” value (Cohort F 375/125 mg, Japanese) was 0 and the “High-density lipoprotein cholesterol decreased, Events” value (Cohort F 375/125 mg, Japanese) was 7. For the same compound, the “High-density lipoprotein cholesterol decreased, n (%)” value (Cohort F 375/125 mg, Japanese) was 7 (87.5), the “Investigations, Events” value (Cohort F 375/125 mg, Japanese) was 7 and the “Investigations, n (%)” value (Cohort F 375/125 mg, Japanese) was 7 (87.5). The “Nausea, Events” value (Cohort F 375/125 mg, Japanese) was 0, the “Nausea, n (%)” value (Cohort F 375/125 mg, Japanese) was 0 and the “Nervous system disorders, Events” value (Cohort F 375/125 mg, Japanese) was 0. For the same compound, the “Nervous system disorders, n (%)” value (Cohort F 375/125 mg, Japanese) was 0, the “Oropharyngeal pain, Events” value (Cohort F 375/125 mg, Japanese) was 0 and the “Oropharyngeal pain, n (%)” value (Cohort F 375/125 mg, Japanese) was 0. For the same compound, the “Participants with any TEAE, Events” value (Cohort F 375/125 mg, Japanese) was 12, the “Participants with any TEAE, n (%)” value (Cohort F 375/125 mg, Japanese) was 7 (87.5) and the “Pyrexia, Events” value (Cohort F 375/125 mg, Japanese) was 0. The “Pyrexia, n (%)” value (Cohort F 375/125 mg, Japanese) was 0, the “Rash, Events” value (Cohort F 375/125 mg, Japanese) was 0 and the “Rash, n (%)” value (Cohort F 375/125 mg, Japanese) was 0. For the same compound, the “Respiratory, thoracic, and mediastinal disorders, Events” value (“Respiratory, thoracic … Events” below) (Cohort F 375/125 mg, Japanese) was 0, the “Respiratory, thoracic, and mediastinal disorders, n (%)” value (from here on “Respiratory, thoracic … (%)”) (Cohort F 375/125 mg, Japanese) was 0 and the “Skin and subcutaneous tissue disorders, Events” value (Cohort F 375/125 mg, Japanese) was 0. The “Skin and subcutaneous tissue disorders, n (%)” value (Cohort F 375/125 mg, Japanese) was 0, the “Somnolence, Events” value (Cohort F 375/125 mg, Japanese) was 0 and the “Somnolence, n (%)” value (Cohort F 375/125 mg, Japanese) was 0. For the same compound, the “Vomiting, Events” value (Cohort F 375/125 mg, Japanese) was 0, the “Vomiting, n (%)” value (Cohort F 375/125 mg, Japanese) was 0 and the “Diarrhea, n (%)” value [1] was 4/8. For the same compound, the “High-density lipoprotein cholesterol decreased, n (%)” value [1] was 7/8, the “Abdominal pain, Events” value [2] was 0 and the “Abdominal pain, n (%)” value [2] was 0. For the same compound, the “Blood creatine phosphate increased, Events” value [2] was 1, the “Blood creatine phosphate increased, n (%)” value [2] was 1 (12.5) and the “Blood triglyceride increased, Events” value [2] was 2. The “Blood triglyceride increased, n (%)” value [2] was 2 (25.0), the “C-reactive protein increased, Events” value [2] was 1 and the “C-reactive protein increased, n (%)” value [2] was 1 (12.5). For the same compound, the “Diarrhea, Events” value [2] was 6, the “Diarrhea, n (%)” value [2] was 4 (50.0) and the “Dizziness, Events” value [2] was 1. The “Dizziness, n (%)” value [2] was 1 (12.5), the “Feeling hot, Events” value [2] was 1 and the “Feeling hot, n (%)” value [2] was 1 (12.5). The “Gastrointestinal disorders, Events” value [2] was 8, the “Gastrointestinal disorders, n (%)” value [2] was 4 (50.0) and the “General disorders and administration site conditions, Events” value [2] was 2. For the same compound, the “General disorders and administration site conditions, n (%)” value [2] was 2 (25.0), the “Headache, Events” value [2] was 6 and the “Headache, n (%)” value [2] was 4 (50.0). The “High-density lipoprotein cholesterol decreased, Events” value [2] was 7, the “High-density lipoprotein cholesterol decreased, n (%)” value [2] was 7 (87.5) and the “Investigations, Events” value [2] was 11. The “Investigations, n (%)” value [2] was 7 (87.5), the “Nausea, Events” value [2] was 1 and the “Nausea, n (%)” value [2] was 1 (12.5). For the same compound, the “Nervous system disorders, Events” value [2] was 11, the “Nervous system disorders, n (%)” value [2] was 5 (62.5) and the “Oropharyngeal pain, Events” value [2] was 0. For the same compound, the “Oropharyngeal pain, n (%)” value [2] was 0, the “Participants with any TEAE, Events” value [2] was 33 and the “Participants with any TEAE, n (%)” value [2] was 8 (100). The “Pyrexia, Events” value [2] was 1, the “Pyrexia, n (%)” value [2] was 1 (12.5) and the “Rash, Events” value [2] was 1. The “Rash, n (%)” value [2] was 1 (12.5), the “Respiratory, thoracic … Events” value [2] was 0 and the “Respiratory, thoracic … (%)” value [2] was 0. The “Skin and subcutaneous tissue disorders, Events” value [2] was 1, the “Skin and subcutaneous tissue disorders, n (%)” value [2] was 1 (12.5) and the “Somnolence, Events” value [2] was 4. The “Somnolence, n (%)” value [2] was 3 (37.5), the “Vomiting, Events” value [2] was 1 and the “Vomiting, n (%)” value [2] was 1 (12.5). The “Diarrhea, n (%)” value [3] was 4/8, the “Headache, n (%)” value [3] was 4/8 and the “High-density lipoprotein cholesterol decreased, n (%)” value [3] was 7/8. For the same compound, the “Somnolence, n (%)” value [3] was 3/8, the “Abdominal pain, Events” value (Cohort H 125 mg, white) was 1 and the “Abdominal pain, n (%)” value (Cohort H 125 mg, white) was 1 (12.5). The “Blood creatine phosphate increased, Events” value (Cohort H 125 mg, white) was 0, the “Blood creatine phosphate increased, n (%)” value (Cohort H 125 mg, white) was 0 and the “Blood triglyceride increased, Events” value (Cohort H 125 mg, white) was 0. The “Blood triglyceride increased, n (%)” value (Cohort H 125 mg, white) was 0, the “C-reactive protein increased, Events” value (Cohort H 125 mg, white) was 0 and the “C-reactive protein increased, n (%)” value (Cohort H 125 mg, white) was 0. The “Diarrhea, Events” value (Cohort H 125 mg, white) was 6, the “Dizziness, Events” value (Cohort H 125 mg, white) was 0 and the “Dizziness, n (%)” value (Cohort H 125 mg, white) was 0. The “Feeling hot, Events” value (Cohort H 125 mg, white) was 0, the “Feeling hot, n (%)” value (Cohort H 125 mg, white) was 0 and the “Gastrointestinal disorders, Events” value (Cohort H 125 mg, white) was 7. For the same compound, the “Gastrointestinal disorders, n (%)” value (Cohort H 125 mg, white) was 4 (50.0), the “General disorders and administration site conditions, Events” value (Cohort H 125 mg, white) was 0 and the “General disorders and administration site conditions, n (%)” value (Cohort H 125 mg, white) was 0. The “Headache, Events” value (Cohort H 125 mg, white) was 4, the “Headache, n (%)” value (Cohort H 125 mg, white) was 2 (25.0) and the “High-density lipoprotein cholesterol decreased, Events” value (Cohort H 125 mg, white) was 7. The “High-density lipoprotein cholesterol decreased, n (%)” value (Cohort H 125 mg, white) was 7 (87.5), the “Investigations, Events” value (Cohort H 125 mg, white) was 7 and the “Investigations, n (%)” value (Cohort H 125 mg, white) was 7 (87.5). For the same compound, the “Nausea, Events” value (Cohort H 125 mg, white) was 0, the “Nausea, n (%)” value (Cohort H 125 mg, white) was 0 and the “Nervous system disorders, Events” value (Cohort H 125 mg, white) was 4. The “Nervous system disorders, n (%)” value (Cohort H 125 mg, white) was 2 (25.0), the “Oropharyngeal pain, Events” value (Cohort H 125 mg, white) was 1 and the “Oropharyngeal pain, n (%)” value (Cohort H 125 mg, white) was 1 (12.5). The “Participants with any TEAE, Events” value (Cohort H 125 mg, white) was 19, the “Participants with any TEAE, n (%)” value (Cohort H 125 mg, white) was 8 (100) and the “Pyrexia, Events” value (Cohort H 125 mg, white) was 0. For the same compound, the “Pyrexia, n (%)” value (Cohort H 125 mg, white) was 0, the “Rash, Events” value (Cohort H 125 mg, white) was 0 and the “Rash, n (%)” value (Cohort H 125 mg, white) was 0. For the same compound, the “Respiratory, thoracic … Events” value (Cohort H 125 mg, white) was 1, the “Respiratory, thoracic … (%)” value (Cohort H 125 mg, white) was 1 (12.5) and the “Skin and subcutaneous tissue disorders, Events” value (Cohort H 125 mg, white) was 0. The “Skin and subcutaneous tissue disorders, n (%)” value (Cohort H 125 mg, white) was 0, the “Somnolence, Events” value (Cohort H 125 mg, white) was 0 and the “Somnolence, n (%)” value (Cohort H 125 mg, white) was 0. The “Vomiting, Events” value (Cohort H 125 mg, white) was 0, the “Vomiting, n (%)” value (Cohort H 125 mg, white) was 0 and the “Diarrhea, n (%)” value [4] was 4/8. The “Headache, n (%)” value [4] was 2/8, the “High-density lipoprotein cholesterol decreased, n (%)” value [4] was 7/8 and the “course of the decrease in HDL-C levels” value (single- and multiple-dose administration) was “transient and generally reverted to the baseline values”.
